Results published in US20220242846A1, “ISOINDOLINONE COMPOUNDS” (Monte Rosa Therapeutics AG, priority 2019, published 2022).

Each molecule was assayed against T1, Full length wild-type cereblon CRBN (Homo sapiens, UniProt Q96SW2) (assay: Fluorescence polarization (FP) assay indicating cereblon binding). Conditions: CRBN 80.0 nM, fluorescent probe 5 nM, FP measured after 12 hours; read-out: rFP IC50.
T1 construct: Full length wild-type cereblon CRBN (80.0 nM, 10 μL) was incubated in assay buffer
T1 sequence (Q96SW2 whole entry): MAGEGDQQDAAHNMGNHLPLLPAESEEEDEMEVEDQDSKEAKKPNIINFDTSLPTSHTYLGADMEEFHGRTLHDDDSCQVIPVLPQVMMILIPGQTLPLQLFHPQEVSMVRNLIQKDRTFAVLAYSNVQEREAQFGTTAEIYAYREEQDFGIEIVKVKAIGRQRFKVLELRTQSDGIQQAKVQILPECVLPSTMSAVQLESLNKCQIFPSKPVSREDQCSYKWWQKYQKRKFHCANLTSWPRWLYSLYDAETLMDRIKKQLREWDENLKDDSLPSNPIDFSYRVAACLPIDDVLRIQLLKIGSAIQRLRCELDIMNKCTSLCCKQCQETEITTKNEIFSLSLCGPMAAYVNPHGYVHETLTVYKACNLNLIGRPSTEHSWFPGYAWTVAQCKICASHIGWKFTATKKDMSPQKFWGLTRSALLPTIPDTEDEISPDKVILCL
Summary of the method: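 Full-length wild-type human CRBN (80.0 nM) preincubated 30 min at room temperature with compound (12-point curve, 300-0.937 or 3000-9.3 nM) in HEPES pH 8.0, NaCl, TCEP, Tween 20. Thalidomide-based Cy5-type probe then added at 5 nM final; FP read after 12 h (ex 590, em 675 nm), normalized to DMSO, IC50 derived.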

SMILES | IC50
O=C1CCC(N2Cc3ccc(CNC(=O)NCC4CC4)cc3C2=O)C(=O)N1 (stereo not drawn) [Compound 26] | 907 nM
C[C@H](NC(=O)NCc1ccc2c(c1)C(=O)N(C1CCC(=O)NC1=O)C2)c1ccccc1 (stereo partly drawn) [Compound 55] | 497 nM
O=C1CCC(N2Cc3ccc(CNC(=O)NC4CCCC4)cc3C2=O)C(=O)N1 (stereo not drawn) [Compound 28] | 814 nM
CCCNC(=O)NCc1ccc2c(c1)C(=O)N(C1CCC(=O)NC1=O)C2 (stereo not drawn) [Compound 14] | 1420 nM
O=C1CCC(N2Cc3ccc(CNC(=O)NC4CCCc5ccccc54)cc3C2=O)C(=O)N1 (stereo not drawn) [Compound 40] | 566 nM
O=C1CCC(N2Cc3ccc(CNC(=O)Nc4cccc(Cl)c4Cl)cc3C2=O)C(=O)N1 (stereo not drawn) [Compound 50] | 479 nM
O=C1CCC(N2Cc3ccc(CNC(=O)Nc4ccccc4C(F)(F)F)cc3C2=O)C(=O)N1 (stereo not drawn) [Compound 49] | 867 nM
CCCCCCNC(=O)NCc1ccc2c(c1)C(=O)N(C1CCC(=O)NC1=O)C2 (stereo not drawn) [Compound 13] | 944 nM
Cc1cc(Cl)ccc1NC(=O)NCc1ccc2c(c1)C(=O)N(C1CCC(=O)NC1=O)C2 (stereo not drawn) [Compound 32] | 508 nM

The molecules below were run on Human mammary epithelial cells (HMEC) engineered to express EGFP alone (non myc) (assay: 3D spheroid assay, non myc-HMEC (CellTiterGlo3D viability)). Conditions: 120 h, 3D spheroids, 5 days with compound, read-out: Code: EC50 value in the non myc-HMEC assay.
Assay type: cell-based
Experimental: (§1) 3D Spheroid Experiments—HMEC
(§2) Human mammary epithelial cells (HMEC) were engineered to express either c-myc tagged with EGFP or EGFP alone (non myc) (analogous but distinct from Kessler J D et al, Science. 2012 Jan. 20; 335(6066):348-53. doi: 10.1126/science.1212728; Hsu T Y et al, Nature. 2015 Sep. 17; 525(7569):384-8. doi: 10.1038/nature14985). The engineered cells were seeded at 1000 (myc) or 4000 (non myc) cells/well in a 384 ultra-low attachment plate in a total volume of 40 µL, HMEC cell culture media (DMEM/F12+10% HI-FBS+15 mM HEPES+0.5 ug/ml Hydrocortisone+10 ug/ml Insulin+20 ng/ml EGF). Plates were spun at 1200 rpm for 5 minutes at room temperature to ensure that cells have gathered in the middle of the well and incubated at 37° C. for 48 hrs before firing with compounds. On Day 2 (48 h post seeding) cells were imaged (brightfield and EGFP fluorescence) using the Celigo imaging cytometer prior to firing compounds. For primary screens, compounds were added at three concentrations (1.25, 10 and 30 uM) in a volume of 120 nL using the ECHO acoustic dispenser and spun at 2000 rpm for 2 minutes at room temperature before incubating at 37° C. for 5 days. […] On Day 7, prior to measuring cell viability using CellTiterGlo3D, cells were imaged (brightfield and EGFP fluorescence) on the Celigo imaging cytometer. The CellTiterGlo3D reagent is added at 30uL/well and incubated at room temperature for 30mins After 30mins of incubation, luminescence readings were recorded using the Perkin Elmer EnVision reader.

SMILES | EC50
O=C1CCC(N2Cc3ccc(CNC(=O)NCC4CC4)cc3C2=O)C(=O)N1 (stereo not drawn) [Compound 26] | > 10000 nM
C[C@H](NC(=O)NCc1ccc2c(c1)C(=O)N(C1CCC(=O)NC1=O)C2)c1ccccc1 (stereo partly drawn) [Compound 55] | > 10000 nM
O=C1CCC(N2Cc3ccc(CNC(=O)NC4CCCC4)cc3C2=O)C(=O)N1 (stereo not drawn) [Compound 28] | > 10000 nM
CCCNC(=O)NCc1ccc2c(c1)C(=O)N(C1CCC(=O)NC1=O)C2 (stereo not drawn) [Compound 14] | > 10000 nM
O=C1CCC(N2Cc3ccc(CNC(=O)NC4CCCc5ccccc54)cc3C2=O)C(=O)N1 (stereo not drawn) [Compound 40] | > 10000 nM
O=C1CCC(N2Cc3ccc(CNC(=O)Nc4cccc(Cl)c4Cl)cc3C2=O)C(=O)N1 (stereo not drawn) [Compound 50] | > 10000 nM
O=C1CCC(N2Cc3ccc(CNC(=O)Nc4ccccc4C(F)(F)F)cc3C2=O)C(=O)N1 (stereo not drawn) [Compound 49] | > 10000 nM
CCCCCCNC(=O)NCc1ccc2c(c1)C(=O)N(C1CCC(=O)NC1=O)C2 (stereo not drawn) [Compound 13] | > 10000 nM
Cc1cc(Cl)ccc1NC(=O)NCc1ccc2c(c1)C(=O)N(C1CCC(=O)NC1=O)C2 (stereo not drawn) [Compound 32] | > 10000 nM

What follows are molecules tested against GSPT1 (Homo sapiens, UniProt P15170+Q96SW2) (assay: Immunofluorescence assay for GSPT1 degradation in CAL-51 cells). Conditions: compound treatment 6 hours, read-out: Code: activity for GSPT1 degradation (DC50).
Chain of GSPT1 (P15170 whole entry): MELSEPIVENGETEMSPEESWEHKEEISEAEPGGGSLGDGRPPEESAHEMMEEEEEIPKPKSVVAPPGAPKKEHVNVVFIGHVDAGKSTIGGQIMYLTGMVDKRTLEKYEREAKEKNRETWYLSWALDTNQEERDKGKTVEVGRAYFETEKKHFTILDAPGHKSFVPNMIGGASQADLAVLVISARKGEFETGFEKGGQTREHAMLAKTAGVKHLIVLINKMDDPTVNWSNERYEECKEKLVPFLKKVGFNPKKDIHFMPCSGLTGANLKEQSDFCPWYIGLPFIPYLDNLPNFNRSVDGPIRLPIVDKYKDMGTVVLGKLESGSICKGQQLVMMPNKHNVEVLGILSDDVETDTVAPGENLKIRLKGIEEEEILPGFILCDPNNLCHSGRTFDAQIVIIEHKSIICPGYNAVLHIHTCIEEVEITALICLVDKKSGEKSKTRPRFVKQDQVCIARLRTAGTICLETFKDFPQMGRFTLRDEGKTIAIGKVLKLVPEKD
Chain of GSPT1 (Q96SW2 whole entry): as the sequence (Q96SW2 whole entry) above
Chain of GSPT1 (Q16531 2-1140 partner limits assumed): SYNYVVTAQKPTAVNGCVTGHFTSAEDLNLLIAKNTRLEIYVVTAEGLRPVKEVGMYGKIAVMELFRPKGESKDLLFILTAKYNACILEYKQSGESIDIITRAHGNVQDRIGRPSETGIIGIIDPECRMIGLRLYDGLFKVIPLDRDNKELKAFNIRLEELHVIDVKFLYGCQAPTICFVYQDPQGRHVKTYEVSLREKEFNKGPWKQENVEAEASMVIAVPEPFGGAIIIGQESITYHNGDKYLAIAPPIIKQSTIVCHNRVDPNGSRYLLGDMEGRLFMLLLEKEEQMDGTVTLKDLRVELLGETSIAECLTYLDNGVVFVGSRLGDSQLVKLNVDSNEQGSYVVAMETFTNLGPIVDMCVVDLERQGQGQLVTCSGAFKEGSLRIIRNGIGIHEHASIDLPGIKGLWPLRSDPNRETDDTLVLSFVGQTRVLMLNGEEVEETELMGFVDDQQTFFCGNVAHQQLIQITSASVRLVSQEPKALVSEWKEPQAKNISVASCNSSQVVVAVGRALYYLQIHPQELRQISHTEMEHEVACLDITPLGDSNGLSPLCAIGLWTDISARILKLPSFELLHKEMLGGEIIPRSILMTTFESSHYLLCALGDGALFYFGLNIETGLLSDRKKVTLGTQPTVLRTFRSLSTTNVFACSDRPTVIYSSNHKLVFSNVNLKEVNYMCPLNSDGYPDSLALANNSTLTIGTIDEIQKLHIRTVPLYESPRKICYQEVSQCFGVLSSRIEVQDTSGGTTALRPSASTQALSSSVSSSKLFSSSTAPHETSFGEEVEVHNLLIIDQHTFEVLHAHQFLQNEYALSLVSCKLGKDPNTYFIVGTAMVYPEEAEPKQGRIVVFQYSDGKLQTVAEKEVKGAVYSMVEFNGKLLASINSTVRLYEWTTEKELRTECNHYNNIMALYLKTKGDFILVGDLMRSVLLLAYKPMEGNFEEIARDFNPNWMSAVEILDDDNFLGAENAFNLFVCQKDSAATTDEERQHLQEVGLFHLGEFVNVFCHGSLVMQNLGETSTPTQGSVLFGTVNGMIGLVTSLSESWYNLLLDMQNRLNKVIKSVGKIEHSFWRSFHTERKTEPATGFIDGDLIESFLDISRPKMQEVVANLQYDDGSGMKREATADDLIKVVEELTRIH
Assay type: cell-based
Set-up: CAL-51 cells were purchased from DSMZ (cat. Number ACC302); endogenous in cells; host or cells: CAL-51 (DSMZ ACC302)
Summary of the method: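 CAL-51 cells on fibronectin-coated plates treated 6 h with compound (30 μM to 0.1 nM); fixed, stained with anti-GSPT1/Alexa-488, phalloidin and DAPI, imaged by high-content microscopy. Mean GSPT1 intensity per cell normalized to controls; DC50 by non-linear regression.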

SMILES | DC50
O=C1CCC(N2Cc3ccc(CNC(=O)NCC4CC4)cc3C2=O)C(=O)N1 (stereo not drawn) [Compound 26] | > 300 nM
C[C@H](NC(=O)NCc1ccc2c(c1)C(=O)N(C1CCC(=O)NC1=O)C2)c1ccccc1 (stereo partly drawn) [Compound 55] | > 300 nM
O=C1CCC(N2Cc3ccc(CNC(=O)NC4CCCC4)cc3C2=O)C(=O)N1 (stereo not drawn) [Compound 28] | > 300 nM
CCCNC(=O)NCc1ccc2c(c1)C(=O)N(C1CCC(=O)NC1=O)C2 (stereo not drawn) [Compound 14] | > 300 nM
O=C1CCC(N2Cc3ccc(CNC(=O)NC4CCCc5ccccc54)cc3C2=O)C(=O)N1 (stereo not drawn) [Compound 40] | > 300 nM
O=C1CCC(N2Cc3ccc(CNC(=O)Nc4cccc(Cl)c4Cl)cc3C2=O)C(=O)N1 (stereo not drawn) [Compound 50] | > 300 nM
O=C1CCC(N2Cc3ccc(CNC(=O)Nc4ccccc4C(F)(F)F)cc3C2=O)C(=O)N1 (stereo not drawn) [Compound 49] | > 300 nM
CCCCCCNC(=O)NCc1ccc2c(c1)C(=O)N(C1CCC(=O)NC1=O)C2 (stereo not drawn) [Compound 13] | > 300 nM
Cc1cc(Cl)ccc1NC(=O)NCc1ccc2c(c1)C(=O)N(C1CCC(=O)NC1=O)C2 (stereo not drawn) [Compound 32] | > 300 nM

Each molecule was assayed on Human mammary epithelial cells (HMEC) engineered to express c-myc tagged with EGFP (assay: 3D spheroid assay, myc-HMEC (CellTiterGlo3D viability)). Conditions: Homo sapiens, HMEC, 120 h, 3D spheroids, 5 days with compound, read-out: Code: EC50 value in the myc-HMEC assay.
Assay type: cell-based
Experimental: as §1, §2

SMILES | EC50
O=C1CCC(N2Cc3ccc(CNC(=O)NCC4CC4)cc3C2=O)C(=O)N1 (stereo not drawn) [Compound 26] | > 2000 nM
C[C@H](NC(=O)NCc1ccc2c(c1)C(=O)N(C1CCC(=O)NC1=O)C2)c1ccccc1 (stereo partly drawn) [Compound 55] | > 2000 nM
O=C1CCC(N2Cc3ccc(CNC(=O)NC4CCCC4)cc3C2=O)C(=O)N1 (stereo not drawn) [Compound 28] | > 2000 nM
CCCNC(=O)NCc1ccc2c(c1)C(=O)N(C1CCC(=O)NC1=O)C2 (stereo not drawn) [Compound 14] | > 2000 nM
O=C1CCC(N2Cc3ccc(CNC(=O)NC4CCCc5ccccc54)cc3C2=O)C(=O)N1 (stereo not drawn) [Compound 40] | > 2000 nM
O=C1CCC(N2Cc3ccc(CNC(=O)Nc4cccc(Cl)c4Cl)cc3C2=O)C(=O)N1 (stereo not drawn) [Compound 50] | > 2000 nM
O=C1CCC(N2Cc3ccc(CNC(=O)Nc4ccccc4C(F)(F)F)cc3C2=O)C(=O)N1 (stereo not drawn) [Compound 49] | > 2000 nM
CCCCCCNC(=O)NCc1ccc2c(c1)C(=O)N(C1CCC(=O)NC1=O)C2 (stereo not drawn) [Compound 13] | > 2000 nM
Cc1cc(Cl)ccc1NC(=O)NCc1ccc2c(c1)C(=O)N(C1CCC(=O)NC1=O)C2 (stereo not drawn) [Compound 32] | > 2000 nM
